From the NIST ThermoML archive (doi:10.1016/j.jct.2011.02.018)
Numbers after ± are expanded uncertainties.

Assay: xn = mol fraction of the nth substance listed
Conditions: 101 kPa, Liquid; for viscosity: Concentric cylinders viscometry; for mass density: Vibrating tube method

COC(C)(C)C [2-methoxy-2-methylpropane] + CCO
Conditions	mass density, 293.15 K [kg/m3]	mass density, 298.15 K [kg/m3]	mass density, 303.15 K [kg/m3]	mass density, 308.15 K [kg/m3]	viscosity, 293.15 K [mPa·s]	viscosity, 298.15 K [mPa·s]	viscosity, 303.15 K [mPa·s]	viscosity, 308.15 K [mPa·s]
x1 = 0.0097	789.03 ± 0.23	784.78 ± 0.23	780.44 ± 0.23	776.08 ± 0.23	1.174 ± 0.048	1.067 ± 0.043	0.9713 ± 0.04	0.884 ± 0.036
x1 = 0.0198	788.28 ± 0.23	783.99 ± 0.23	779.64 ± 0.23	775.26 ± 0.23	1.146 ± 0.047	1.043 ± 0.042	0.9506 ± 0.039	0.8659 ± 0.035
x1 = 0.0301	787.54 ± 0.23	783.23 ± 0.23	778.87 ± 0.23	774.47 ± 0.23	1.118 ± 0.046	1.027 ± 0.042	0.9348 ± 0.038	0.8484 ± 0.035
x1 = 0.0402	786.85 ± 0.23	782.54 ± 0.23	778.16 ± 0.23	773.74 ± 0.23	1.092 ± 0.044	0.9956 ± 0.041	0.9088 ± 0.037	0.8298 ± 0.034
x1 = 0.0502	786.37 ± 0.23	782.01 ± 0.23	777.63 ± 0.23	773.2 ± 0.23	1.073 ± 0.044	0.9782 ± 0.04	0.893 ± 0.036	0.8165 ± 0.033
x1 = 0.0583	785.66 ± 0.23	781.32 ± 0.23	776.91 ± 0.23	772.46 ± 0.23	1.049 ± 0.043	0.9582 ± 0.039	0.8745 ± 0.036	0.7986 ± 0.033
x1 = 0.07	784.87 ± 0.23	780.51 ± 0.23	776.08 ± 0.23	771.61 ± 0.23	1.023 ± 0.042	0.9337 ± 0.038	0.854 ± 0.035	0.7813 ± 0.032
x1 = 0.0801	784.2 ± 0.23	779.82 ± 0.23	775.37 ± 0.23	770.89 ± 0.23	1 ± 0.041	0.9146 ± 0.037	0.8364 ± 0.034	0.7634 ± 0.031
x1 = 0.0861	783.96 ± 0.23	779.52 ± 0.23	775.09 ± 0.23	770.6 ± 0.23	0.9912 ± 0.04	0.9061 ± 0.037	0.8291 ± 0.034	0.7578 ± 0.031
x1 = 0.1009	782.99 ± 0.23	778.56 ± 0.23	774.11 ± 0.23	769.6 ± 0.23	0.9622 ± 0.039	0.8805 ± 0.036	0.806 ± 0.033	0.7369 ± 0.03
x1 = 0.154	779.59 ± 0.23	775.08 ± 0.23	770.56 ± 0.23	765.97 ± 0.23	0.8624 ± 0.035	0.792 ± 0.032	0.7283 ± 0.03	0.6689 ± 0.027
x1 = 0.2006	776.77 ± 0.23	772.21 ± 0.23	767.62 ± 0.23	762.96 ± 0.23	0.7889 ± 0.032	0.7263 ± 0.03	0.6694 ± 0.027	0.6147 ± 0.025
x1 = 0.2471	774.06 ± 0.23	769.46 ± 0.23	764.79 ± 0.23	760.08 ± 0.23	0.7261 ± 0.03	0.6707 ± 0.028	0.6185 ± 0.025	0.5661 ± 0.023
x1 = 0.2975	771.22 ± 0.23	766.56 ± 0.23	761.83 ± 0.23	757.06 ± 0.24	0.6675 ± 0.027	0.6182 ± 0.025	0.5731 ± 0.024	0.5259 ± 0.022
x1 = 0.3487	768.46 ± 0.23	763.75 ± 0.23	758.96 ± 0.23	754.12 ± 0.24	0.6166 ± 0.025	0.5722 ± 0.024	0.5309 ± 0.022	0.4855 ± 0.02
x1 = 0.3976	765.94 ± 0.23	761.16 ± 0.23	756.32 ± 0.24	751.43 ± 0.24	0.5761 ± 0.024	0.5357 ± 0.022	0.4954 ± 0.021	0.4552 ± 0.019
x1 = 0.4532	763.17 ± 0.23	758.36 ± 0.24	753.45 ± 0.24	748.5 ± 0.24	0.5354 ± 0.022	0.4987 ± 0.021	0.4638 ± 0.019	0.4257 ± 0.018
x1 = 0.5007	760.96 ± 0.23	756.08 ± 0.24	751.15 ± 0.24	746.15 ± 0.24	0.5062 ± 0.021	0.4708 ± 0.019	0.4353 ± 0.018	0.3994 ± 0.017
x1 = 0.5505	758.76 ± 0.24	753.83 ± 0.24	748.85 ± 0.24	743.8 ± 0.24	0.4798 ± 0.02	0.4482 ± 0.019	0.4155 ± 0.017	0.379 ± 0.016
x1 = 0.5998	756.62 ± 0.24	751.67 ± 0.24	746.63 ± 0.24	741.53 ± 0.24	0.4564 ± 0.019	0.426 ± 0.018	0.3967 ± 0.017	0.363 ± 0.015
x1 = 0.6484	754.48 ± 0.24	749.51 ± 0.24	744.43 ± 0.24	739.29 ± 0.24	0.4361 ± 0.018	0.4083 ± 0.017	0.3808 ± 0.016	0.3487 ± 0.015
x1 = 0.6995	752.35 ± 0.24	747.32 ± 0.24	742.19 ± 0.24	737 ± 0.24	0.4156 ± 0.017	0.39 ± 0.016	0.3632 ± 0.015	0.3313 ± 0.014
x1 = 0.749	750.35 ± 0.24	745.3 ± 0.24	740.14 ± 0.24	734.91 ± 0.24	0.3998 ± 0.017	0.3751 ± 0.016	0.3459 ± 0.015	0.3273 ± 0.014
x1 = 0.7995	748.36 ± 0.24	743.27 ± 0.24	738.06 ± 0.24	732.8 ± 0.24	0.3844 ± 0.016	0.3616 ± 0.015	0.3381 ± 0.014	0.3084 ± 0.013
x1 = 0.8496	746.44 ± 0.24	741.31 ± 0.24	736.08 ± 0.24	730.78 ± 0.24	0.3715 ± 0.016	0.3488 ± 0.015	0.3271 ± 0.014	0.3025 ± 0.013
x1 = 0.9009	744.51 ± 0.24	739.34 ± 0.24	734.07 ± 0.24	728.75 ± 0.24	0.3589 ± 0.015	0.3384 ± 0.014	0.3159 ± 0.013	0.2963 ± 0.013
x1 = 0.9093	744.2 ± 0.24	739.04 ± 0.24	733.77 ± 0.24	728.45 ± 0.24	0.3573 ± 0.015	0.3382 ± 0.014	0.3136 ± 0.013	0.2948 ± 0.013
x1 = 0.9166	743.9 ± 0.24	738.72 ± 0.24	733.47 ± 0.24	728.14 ± 0.24	0.3534 ± 0.015	0.3338 ± 0.014	0.3143 ± 0.013	0.2965 ± 0.013
x1 = 0.9299	743.35 ± 0.24	738.18 ± 0.24	732.9 ± 0.24	727.57 ± 0.24	0.352 ± 0.015	0.3326 ± 0.014	0.3136 ± 0.013	0.2908 ± 0.012
x1 = 0.9398	742.96 ± 0.24	737.79 ± 0.24	732.51 ± 0.24	727.17 ± 0.24	0.35 ± 0.015	0.3294 ± 0.014	0.3107 ± 0.013	0.2884 ± 0.012
x1 = 0.9501	742.54 ± 0.24	737.38 ± 0.24	732.09 ± 0.24	726.76 ± 0.24	0.348 ± 0.015	0.3264 ± 0.014	0.3068 ± 0.013	0.2842 ± 0.012
x1 = 0.9597	742.15 ± 0.24	736.97 ± 0.24	731.71 ± 0.24	726.36 ± 0.24	0.3458 ± 0.015	0.3256 ± 0.014	0.3066 ± 0.013	0.2829 ± 0.012
x1 = 0.968	741.84 ± 0.24	736.66 ± 0.24	731.37 ± 0.24	726.03 ± 0.24	0.3444 ± 0.015	0.3247 ± 0.014	0.3062 ± 0.013	0.282 ± 0.012
x1 = 0.9802	741.35 ± 0.24	736.15 ± 0.24	730.87 ± 0.24	725.52 ± 0.24	0.3418 ± 0.014	0.3226 ± 0.014	0.304 ± 0.013	0.2809 ± 0.012
x1 = 0.9868	741.1 ± 0.24	735.92 ± 0.24	730.61 ± 0.24	725.26 ± 0.24	0.3421 ± 0.014	0.3209 ± 0.014	0.3005 ± 0.013	0.2794 ± 0.012
